Data reported in ChEMBL document CHEMBL3044799, “Biological activity of the succinate dehydrogenase inhibitor fluopyram against Botrytis cinerea and fungal baseline sensitivity” (Pest Manag Sci, 2012).
≈ marks a conversion by molar mass, not a printed value. Calls of active or inactive are those of the source. No cut-off for these calls is given here.

Columns and labels:
Botrytis cinerea [1] = experiment: Curative antifungal activity against Botryotinia fuckeliana inoculated in strawberry fruit assessed as disease severity measuring lesion diameter at 10 ug AI/ml applied 96 hr post-inoculation; format: functional
Botrytis cinerea [2] = experiment: Antifungal activity against Botryotinia fuckeliana grown on water agar assessed as inhibition of spore germination at 1 ug/ml after 10 days; format: functional, organism-based
Botrytis cinerea [3] = experiment: Protective antifungal activity against Botryotinia fuckeliana inoculated in fungicide-applied strawberry fruit assessed as disease control efficacy at 10 ug AI/ml applied 96 hr prior-inoculation relative to control; format: functional
Botrytis cinerea [4] = experiment: Curative antifungal activity against Botryotinia fuckeliana inoculated in strawberry fruit assessed as disease control efficacy at 1 ug AI/ml applied 96 hr post-inoculation relative to control; format: functional
Botrytis cinerea [5] = experiment: Antifungal activity against Botryotinia fuckeliana grown on succinate medium assessed as inhibition of spore germination at 5 ug/ml after 10 days; format: functional, organism-based
Botrytis cinerea [6] = experiment: Protective antifungal activity against Botryotinia fuckeliana inoculated in fungicide-applied strawberry fruit assessed as disease severity measuring lesion diameter at 10 ug AI/ml applied 48 hr prior inoculation; format: functional
Botrytis cinerea [7] = experiment: Curative antifungal activity against Botryotinia fuckeliana inoculated in strawberry fruit assessed as disease severity measuring lesion diameter at 10 ug AI/ml applied 24 hr post-inoculation; format: functional
Botrytis cinerea [8] = experiment: Antifungal activity against Botryotinia fuckeliana grown on YBA agar assessed as inhibition of spore germination at 1 ug/ml after 10 days; format: functional, organism-based
Botrytis cinerea [9] = experiment: Curative antifungal activity against Botryotinia fuckeliana inoculated in strawberry fruit assessed as disease severity measuring lesion diameter at 100 ug AI/ml applied 96 hr post-inoculation; format: functional
Botrytis cinerea [10] = experiment: Curative antifungal activity against Botryotinia fuckeliana inoculated in strawberry fruit assessed as disease severity measuring lesion diameter at 100 ug AI/ml applied 24 hr post-inoculation; format: functional
Botrytis cinerea [11] = experiment: Curative antifungal activity against Botryotinia fuckeliana inoculated in strawberry fruit assessed as disease control efficacy at 50 ug AI/ml applied 96 hr post-inoculation relative to control; format: functional
Botrytis cinerea [12] = experiment: Protective antifungal activity against Botryotinia fuckeliana inoculated in fungicide-applied strawberry fruit assessed as disease severity measuring lesion diameter at 1 ug AI/ml applied 24 hr prior inoculation; format: functional
Botrytis cinerea [13] = experiment: Antifungal activity against Botryotinia fuckeliana grown on succinate medium assessed as inhibition of mycelial growth at 10 ug/ml after 10 days; format: functional, organism-based
Botrytis cinerea [14] = experiment: Antifungal activity against Botryotinia fuckeliana obtained from grape isolate assessed as inhibition of spore germ tube growth; format: functional, organism-based
Botrytis cinerea [15] = experiment: Protective antifungal activity against Botryotinia fuckeliana inoculated in fungicide-applied strawberry fruit assessed as disease control efficacy at 1 ug AI/ml applied 48 hr prior inoculation relative to control; format: functional
Botrytis cinerea [16] = experiment: Curative antifungal activity against Botryotinia fuckeliana inoculated in strawberry fruit assessed as disease control efficacy at 10 ug AI/ml applied 96 hr post-inoculation relative to control; format: functional
Botrytis cinerea [17] = experiment: Curative antifungal activity against Botryotinia fuckeliana inoculated in strawberry fruit assessed as disease severity measuring lesion diameter at 50 ug AI/ml applied 24 hr post-inoculation; format: functional
Botrytis cinerea [18] = experiment: Curative antifungal activity against Botryotinia fuckeliana inoculated in strawberry fruit assessed as disease control efficacy at 100 ug AI/ml applied 48 hr post-inoculation relative to control; format: functional
Botrytis cinerea [19] = experiment: Curative antifungal activity against Botryotinia fuckeliana inoculated in strawberry fruit assessed as disease severity measuring lesion diameter at 10 ug AI/ml applied 48 hr post-inoculation; format: functional
Botrytis cinerea [20] = experiment: Protective antifungal activity against Botryotinia fuckeliana inoculated in fungicide-applied strawberry fruit assessed as disease control efficacy at 100 ug AI/ml applied 48 hr prior inoculation relative to control; format: functional
Botrytis cinerea [21] = experiment: Curative antifungal activity against Botryotinia fuckeliana inoculated in strawberry fruit assessed as disease control efficacy at 100 ug AI/ml applied 24 hr post-inoculation relative to control; format: functional
Botrytis cinerea [22] = experiment: Curative antifungal activity against Botryotinia fuckeliana inoculated in strawberry fruit assessed as disease control efficacy at 1 ug AI/ml applied 48 hr post-inoculation relative to control; format: functional
Botrytis cinerea [23] = experiment: Protective antifungal activity against Botryotinia fuckeliana inoculated in fungicide-applied strawberry fruit assessed as disease severity measuring lesion diameter at 100 ug AI/ml applied 48 hr prior inoculation; format: functional
Botrytis cinerea [24] = experiment: Curative antifungal activity against Botryotinia fuckeliana inoculated in strawberry fruit assessed as disease severity measuring lesion diameter at 1 ug AI/ml applied 48 hr post-inoculation; format: functional
Botrytis cinerea [25] = experiment: Protective antifungal activity against Botryotinia fuckeliana inoculated in fungicide-applied strawberry fruit assessed as disease severity measuring lesion diameter at 50 ug AI/ml applied 24 hr prior inoculation; format: functional
Botrytis cinerea [26] = experiment: Protective antifungal activity against Botryotinia fuckeliana inoculated in fungicide-applied strawberry fruit assessed as disease control efficacy at 100 ug AI/ml applied 24 hr prior inoculation relative to control; format: functional
Botrytis cinerea [27] = experiment: Protective antifungal activity against Botryotinia fuckeliana inoculated in fungicide-applied strawberry fruit assessed as disease severity measuring lesion diameter at 50 ug AI/ml applied 96 hr prior-inoculation; format: functional
Botrytis cinerea [28] = experiment: Protective antifungal activity against Botryotinia fuckeliana inoculated in fungicide-applied strawberry fruit assessed as disease severity measuring lesion diameter at 50 ug AI/ml applied 48 hr prior inoculation; format: functional
Botrytis cinerea [29] = experiment: Curative antifungal activity against Botryotinia fuckeliana inoculated in strawberry fruit assessed as disease control efficacy at 50 ug AI/ml applied 48 hr post-inoculation relative to control; format: functional
Botrytis cinerea [30] = experiment: Protective antifungal activity against Botryotinia fuckeliana inoculated in fungicide-applied strawberry fruit assessed as disease control efficacy at 1 ug AI/ml applied 24 hr prior inoculation relative to control; format: functional
Botrytis cinerea [31] = experiment: Antifungal activity against Botryotinia fuckeliana obtained from kiwi fruit isolate assessed as inhibition of spore germ tube growth; format: functional, organism-based
Botrytis cinerea [32] = experiment: Protective antifungal activity against Botryotinia fuckeliana inoculated in fungicide-applied strawberry fruit assessed as disease control efficacy at 1 ug AI/ml applied 96 hr prior-inoculation relative to control; format: functional
Botrytis cinerea [33] = experiment: Antifungal activity against Botryotinia fuckeliana assessed as inhibition of germ tube growth at 0.001 to 10 ug/ml after 10 days; format: functional, organism-based
Botrytis cinerea [34] = experiment: Curative antifungal activity against Botryotinia fuckeliana inoculated in strawberry fruit assessed as disease control efficacy at 1 ug AI/ml applied 24 hr post-inoculation relative to control; format: functional
Botrytis cinerea [35] = experiment: Antifungal activity against Botryotinia fuckeliana grown on PDA medium assessed as inhibition of mycelial growth at 10 ug/ml after 10 days; format: functional, organism-based
Botrytis cinerea [36] = experiment: Antifungal activity against Botryotinia fuckeliana grown on water agar assessed as inhibition of germ tube growth at 1 ug/ml after 10 days; format: functional, organism-based
Botrytis cinerea [37] = experiment: Curative antifungal activity against Botryotinia fuckeliana inoculated in strawberry fruit assessed as disease severity measuring lesion diameter at 50 ug AI/ml applied 96 hr post-inoculation; format: functional
Botrytis cinerea [38] = experiment: Curative antifungal activity against Botryotinia fuckeliana inoculated in strawberry fruit assessed as disease control efficacy at 10 ug AI/ml applied 48 hr post-inoculation relative to control; format: functional
Botrytis cinerea [39] = experiment: Curative antifungal activity against Botryotinia fuckeliana inoculated in strawberry fruit assessed as disease severity measuring lesion diameter at 100 ug AI/ml applied 48 hr post-inoculation; format: functional

What does the source list for O=C(NCCc1ncc(C(F)(F)F)cc1Cl)c1ccccc1C(F)(F)F [FLUOPYRAM]?
Activity (Botrytis cinerea [1]): 11.1 mm; growth inhibition (GI) (Botrytis cinerea [2]): Active; Efficacy (Botrytis cinerea [3]): 66.3%; Efficacy (Botrytis cinerea [4]): 37.2%; growth inhibition (GI) (Botrytis cinerea [5]): Active; Activity (Botrytis cinerea [6]): 5.5 mm; Activity (Botrytis cinerea [7]): 5.7 mm; growth inhibition (GI) (Botrytis cinerea [8]): Active; Activity (Botrytis cinerea [9]): 7 mm; Activity (Botrytis cinerea [10]): 3.9 mm; Efficacy (Botrytis cinerea [11]): 45.1%; Activity (Botrytis cinerea [12]): 6.3 mm; growth inhibition (GI) (Botrytis cinerea [13]): inactive; EC50 (Botrytis cinerea [14]): 0.13 µg/mL (≈ 0.328 µM); Efficacy (Botrytis cinerea [15]): 54.3%; Efficacy (Botrytis cinerea [16]): 41.1%; Activity (Botrytis cinerea [17]): 4.2 mm; Efficacy (Botrytis cinerea [18]): 92.2%; Activity (Botrytis cinerea [19]): 3.5 mm; Efficacy (Botrytis cinerea [20]): 95.9%; Efficacy (Botrytis cinerea [21]): 79.3%; Efficacy (Botrytis cinerea [22]): 63.3%; Activity (Botrytis cinerea [23]): 1.1 mm; Activity (Botrytis cinerea [24]): 6.9 mm; Activity (Botrytis cinerea [25]): 1.1 mm; Efficacy (Botrytis cinerea [26]): 100%; Activity (Botrytis cinerea [27]): 3.9 mm; Activity (Botrytis cinerea [28]): 2.3 mm; Efficacy (Botrytis cinerea [29]): 82.9%; Efficacy (Botrytis cinerea [30]): 66.4%; EC50 (Botrytis cinerea [31]): 0.1 µg/mL (≈ 0.252 µM); Efficacy (Botrytis cinerea [32]): 53.6%; growth inhibition (GI) (Botrytis cinerea [33]): Active; Efficacy (Botrytis cinerea [34]): 53%; growth inhibition (GI) (Botrytis cinerea [35]): inactive; growth inhibition (GI) (Botrytis cinerea [36]): Active; Activity (Botrytis cinerea [37]): 10.3 mm; Efficacy (Botrytis cinerea [38]): 81.2%; Activity (Botrytis cinerea [39]): 1.4 mm
